Target: MAP kinase-activated protein kinase 2 (Homo sapiens, UniProt P49137)
Experiment: Mass Spectrometry Assay: Compounds I-1 through I-50 of the invention were assayed in a mass spectrometric assay to measure their ability to covalently modify MK2 protein. The procedure for this assay follows. Intact MK2 protein (Invitrogen, Cat. No. PR5320A) was incubated for 60 minutes at room temperature with a 10-fold excess of test compound to protein. Aliquots of the resulting mixture (6 μL …

Sequence of MAP kinase-activated protein kinase 2 (P49137 whole entry): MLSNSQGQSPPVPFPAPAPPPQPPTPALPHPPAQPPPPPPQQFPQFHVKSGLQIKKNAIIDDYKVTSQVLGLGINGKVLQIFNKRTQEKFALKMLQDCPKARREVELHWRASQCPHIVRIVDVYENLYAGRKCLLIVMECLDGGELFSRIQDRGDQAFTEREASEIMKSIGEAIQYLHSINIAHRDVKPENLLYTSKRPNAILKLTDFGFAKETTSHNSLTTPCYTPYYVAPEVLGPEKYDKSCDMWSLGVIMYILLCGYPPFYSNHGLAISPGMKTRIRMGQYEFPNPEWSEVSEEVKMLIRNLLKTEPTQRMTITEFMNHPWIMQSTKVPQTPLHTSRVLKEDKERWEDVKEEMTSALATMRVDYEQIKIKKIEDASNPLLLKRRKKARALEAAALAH

| SMILES | IC50 |
| --- | --- |
| C[C@@H]1CNc2c(sc3ccc4nc(Nc5nccc(Cl)n5)ccc4c23)C(=O)N1 | > 1000 nM |
| CN(C)C[C@@H]1CNc2c(sc3ccc4nc(Nc5cc(F)ncn5)ccc4c23)C(=O)N1 | > 1000 nM |
| C[C@@H]1CNc2c(sc3ccc4nc(Nc5nc(Cl)ncc5C(=O)NC5COC5)ccc4c23)C(=O)N1 | < 100 nM |
| C[C@@H]1CNc2c(sc3ccc4nc(Oc5cc(CNC(C)(C)C)nc(Cl)n5)ccc4c23)C(=O)N1 | < 100 nM |
| C[C@@H]1CNc2c(sc3ccc4nc(Nc5nc(Cl)ncc5C(=O)NC5CCN(C)CC5)ccc4c23)C(=O)N1 | < 100 nM |
| C[C@@H]1CNc2c(sc3ccc4nc(Nc5nc(Cl)ncc5C(=O)NC5CC5)ccc4c23)C(=O)N1 | < 100 nM |

From ChEMBL document CHEMBL5726510, “MK2 inhibitors and uses thereof” (2017)
